# Measurements from patent publication US10759790B2, “Heterocyclic constrained tricyclic sulfonamides as anti-cancer agents” (ICAHN SCHOOL OF MEDICINE AT MOUNT SINAI, priority 2015, dated 2020).
# Like-named read-outs stand apart in the source and are kept apart here.
# Tested on: H1650 lung cancer cells
# Assay: Cell viability assay (MTT, IC50 determination)
# Format: cell-based
# Conditions: for IC50: Homo sapiens, read-out: H1650 cell viability IC50; for H1650 cell viability, % at 40 uM: 48 hours
# Description: Cell viability assays were performed according to Denizot, F. and R. Lang, Journal of Immunological Methods, 1986. 89(22): p. 271-277. H1650 lung cancer cells were plated at 150,000 cells per well in a 12 well plate. Twenty-four hours after plating, cells were treated as described with increasing concentrations of drug and control. Forty-eight hours after drug treatment, cells were treated with 100 μL of 3-(4,5-Dimethylthiazol-2-yl)-2,5-diphenyltetrazolium bromide (MTT) and incubated for 2 hours at 37 C. The MTT solution was subsequently replaced with 300 μL of n-propyl alcohol and re-aliquoted to a 96 well plate. Spectrophotometric analysis of each solution was performed using a 96 well plate reader at 600 nm in triplicate.
# [1] = NCI-H1650, H1650 lung cancer cells, MTT, 48 hours after drug treatment
Structure (SMILES),IC50 [1] [µM],further results
"CC(C)(C)OC(=O)N1CC(N2c3ccccc3Oc3ccccc32)[C@@H](O)[C@H](NS(=O)(=O)c2ccc(OC(F)(F)F)cc2)C1 (mixture of isomers) [Example 16, Rac-(3S,4R,5R)-tert-butyl 4-hydroxy-3-(10H-phenoxazin-10-yl)-5-(4-(trifluoromethoxy)phenylsulfonamido)piperidine-1-carboxylate]",10,–
"CC(=O)N1C[C@H](NS(=O)(=O)c2ccc(OC(F)(F)F)cc2)[C@@H](O)[C@H](N2c3ccccc3Oc3ccccc32)C1 [Example 18b, N-((3S,4S,5R)-1-acetyl-4-hydroxy-5-(10H-phenoxazin-10-yl)piperidin-3-yl)-4-(trifluoromethoxy)benzenesulfonamide]",–,"IC50 (NCI-H1650, 48 h): 15 µM"
"CC(C)(C)c1ccc2c(c1)c1ccccc1n2[C@H]1CNC[C@@H](NS(=O)(=O)c2ccc(OC(F)(F)F)cc2)[C@@H]1O [Example 53a, N-((3R,4R,5S)-5-(3-(tert-butyl)-9H-carbazol-9-yl)-4-hydroxypiperidin-3-yl)-4-(trifluoromethoxy)benzenesulfonamide]",5,–
"O=S(=O)(N[C@@H]1COC[C@H](N2c3ccccc3Oc3ccccc32)[C@H]1O)c1ccc(Cl)s1 [Example 62, 5-chloro-N-((3R,4R,5S)-4-hydroxy-5-(10H-phenoxazin-10-yl)tetrahydro-2H-pyran-3-yl)thiophene-2-sulfonamide]",15,–
"O=S(=O)(N[C@@H]1COC[C@H](n2c3ccccc3c3ccccc32)[C@H]1O)c1ccc(OC(F)(F)F)cc1 [Example 50, N-((3R,4R,5S)-5-(9H-carbazol-9-yl)-4-hydroxytetrahydro-2H-pyran-3-yl)-4-(trifluoromethoxy)benzenesulfonamide]",10,–
"O=S(=O)(N[C@@H]1CNC[C@H](N2c3ccccc3Oc3ccccc32)[C@H]1O)c1ccc(OC(F)(F)F)cc1 [Example 17a, N-((3R,4R,5S)-4-hydroxy-5-(10H-phenoxazin-10-yl)piperidin-3-yl)-4-(trifluoromethoxy)benzenesulfonamide]",15,–
"O=S(=O)(N[C@@H]1COC[C@H](N2c3ccc(Cl)cc3Oc3cc(Cl)ccc32)[C@H]1O)c1ccc(OC(F)(F)F)cc1 [Example 12, N-((3R,4R,5S)-5-(3,7-dichloro-10H-phenoxazin-10-yl)-4-hydroxytetrahydro-2H-pyran-3-yl)-4-(trifluoromethoxy)benzenesulfonamide]",10,–
O=S(=O)(N[C@@H]1CNC[C@H](n2c3ccc(Cl)cc3c3cc(Cl)ccc32)[C@H]1O)c1ccc(OC(F)(F)F)cc1 [Example 44],10,–
"O=S(=O)(N[C@H]1CNC[C@@H](n2c3ccccc3c3ccccc32)[C@@H]1O)c1ccc(OC(F)(F)F)cc1 [Example 41b, N-((3S,4S,5R)-5-(9H-carbazol-9-yl)-4-hydroxypiperidin-3-yl)-4-(trifluoromethoxy)benzenesulfonamide]",10,–
"CN1C[C@H](NS(=O)(=O)c2ccc(OC(F)(F)F)cc2)[C@@H](O)[C@H](N2c3ccccc3Oc3ccccc32)C1 [Example 19b, N-((3S,4S,5R)-4-hydroxy-1-methyl-5-(10H-phenoxazin-10-yl)piperidin-3-yl)-4-(trifluoromethoxy)benzenesulfonamide]",15,–
"Nc1ccc(S(=O)(=O)N[C@@H]2COC[C@H](N3c4ccccc4Oc4ccccc43)[C@H]2O)cc1 [Example 67, 4-amino-N-((3R,4R,5S)-4-hydroxy-5-(10H-phenoxazin-10-yl)tetrahydro-2H-pyran-3-yl)benzenesulfonamide]",–,"H1650 cell viability, % at 40 uM (H1650 lung cancer cells, MTT): 56% at 40 uM"
"Nc1cccc(S(=O)(=O)N[C@@H]2COC[C@H](N3c4ccccc4Oc4ccccc43)[C@H]2O)c1 [Example 69, 3-amino-N-((3R,4R,5S)-4-hydroxy-5-(10H-phenoxazin-10-yl)tetrahydro-2H-pyran-3-yl)benzenesulfonamide]",–,"H1650 cell viability, % at 40 uM (H1650 lung cancer cells, MTT): 54% at 40 uM"
"O=S(=O)(N[C@@H]1COC[C@H](N2c3ccccc3Oc3ccc(C(F)(F)F)cc32)[C@H]1O)c1ccc(OC(F)(F)F)cc1 [Example 8, N-((3R,4R,5S)-4-hydroxy-5-(2-(trifluoromethyl)-10H-phenoxazin-10-yl)tetrahydro-2H-pyran-3-yl)-4-(trifluoromethoxy)benzenesulfonamide]",10,–
CN1C[C@@H](NS(=O)(=O)c2ccc(OC(F)(F)F)cc2)[C@H](O)[C@@H](N2c3ccccc3Oc3ccccc32)C1 [Example 19a],25,–
"O=S(=O)(N[C@@H]1COC[C@H](N2c3ccccc3Oc3ccccc32)[C@H]1O)c1ccccc1 [Example 60, N-((3R,4R,5S)-4-hydroxy-5-(10H-phenoxazin-10-yl)tetrahydro-2H-pyran-3-yl)benzenesulfonamide]",–,"H1650 cell viability, % at 40 uM (H1650 lung cancer cells, MTT): 37% at 40 uM"
"O=S(=O)(N[C@@H]1COC[C@H](N2c3ccccc3Oc3cc(Cl)ccc32)[C@H]1O)c1ccc(OC(F)(F)F)cc1 [Example 13, N-((3R,4R,5S)-5-(3-chloro-10H-phenoxazin-10-yl)-4-hydroxytetrahydro-2H-pyran-3-yl)-4-(trifluoromethoxy)benzenesulfonamide]",5,–
[N-]=[N+]=Nc1ccc(S(=O)(=O)N[C@@H]2COC[C@H](N3c4ccccc4Oc4ccccc43)[C@H]2O)cc1 [Example 6],–,"IC50 (NCI-H1650, 48 h): 25 µM"
"O=S(=O)(N[C@@H]1COC[C@H](N2c3ccccc3Oc3cc(F)ccc32)[C@H]1O)c1ccc(OC(F)(F)F)cc1 [Example 11, N-((3R,4R,5S)-5-(3-fluoro-10H-phenoxazin-10-yl)-4-hydroxytetrahydro-2H-pyran-3-yl)-4-(trifluoromethoxy)benzenesulfonamide]",10,–
"COC(=O)N1C[C@H](NS(=O)(=O)c2ccc(OC(F)(F)F)cc2)[C@@H](O)[C@H](N2c3ccccc3Oc3ccccc32)C1 [Example 20b, (3R,4S,5S)-methyl 4-hydroxy-3-(10H-phenoxazin-10-yl)-5-(4-(trifluoromethoxy)phenylsulfonamido)piperidine-1-carboxylate]",–,"IC50 (NCI-H1650, 48 h): 5 µM"
"CC(C)(C)OC(=O)N1C[C@@H](NS(=O)(=O)c2ccc(OC(F)(F)F)cc2)[C@H](O)[C@@H](n2c3ccccc3c3ccccc32)C1 [Example 52a, (3S,4R,5R)-tert-butyl 3-(9H-carbazol-9-yl)-4-hydroxy-5-(4-(trifluoromethoxy)phenylsulfonamido)piperidine-1-carboxylate]",5,–
"CC(=O)N1CC(NS(=O)(=O)c2ccc(OC(F)(F)F)cc2)[C@H](O)C(N2c3ccccc3Oc3ccccc32)C1 (mixture of isomers) [Example 18, Rac-N-((3R,4R,5S)-1-acetyl-4-hydroxy-5-(10H-phenoxazin-10-yl)piperidin-3-yl)-4-(trifluoromethoxy)benzenesulfonamide]",20,–
"O=S(=O)(N[C@@H]1COCC(N2c3ccccc3Oc3ccccc32)[C@H]1O)c1ccc(OC(F)(F)F)cc1 (relative stereo) [Example 2, N-(4-hydroxy-5-(10H-phenoxazin-10-yl)tetrahydro-2H-pyran-3-yl)-4-(trifluoromethoxy)benzenesulfonamide]",15,–
"O=S(=O)(N[C@@H]1COCC(n2c3ccccc3c3ccccc32)[C@H]1O)c1ccc(OC(F)(F)F)cc1 (mixture of isomers) [Example 1, Rac-N-(3R,4R,5S)-5-(9H-carbazol-9-yl)-4-hydroxytetrahydro-2H-pyran-3-yl)-4-(trifluoromethoxy)benzenesulfonamide]",15,–
"O=S(=O)(N[C@@H]1CNC[C@H](n2c3ccccc3c3ccccc32)[C@H]1O)c1ccc(OC(F)(F)F)cc1 [Example 41a, N-((3R,4R,5S)-5-(9H-carbazol-9-yl)-4-hydroxypiperidin-3-yl)-4-(trifluoromethoxy)benzenesulfonamide]",10,–
"CC(C)(C)OC(=O)N1C[C@@H](NS(=O)(=O)c2ccc(OC(F)(F)F)cc2)[C@H](O)[C@@H](n2c3ccc(F)cc3c3cc(F)ccc32)C1 [Example 54, (3S,4R,5R)-tert-butyl 3-(3,6-difluoro-9H-carbazol-9-yl)-4-hydroxy-5-(4-(trifluoromethoxy)phenylsulfonamido)piperidine-1-carboxylate]",5,–
"O=S(=O)(N[C@@H]1CNC[C@H](n2c3ccc(F)cc3c3cc(F)ccc32)[C@H]1O)c1ccc(OC(F)(F)F)cc1 [Example 55, N-((3R,4R,5S)-5-(3,6-difluoro-9H-carbazol-9-yl)-4-hydroxypiperidin-3-yl)-4-(trifluoromethoxy)benzenesulfonamide]",5,–
"CC(C)(C)OC(=O)N1C[C@H](NS(=O)(=O)c2ccc(OC(F)(F)F)cc2)[C@@H](O)[C@H](N2c3ccccc3Oc3ccccc32)C1 [Example 16b, (3R,4S,5S)-tert-butyl 4-hydroxy-3-(10H-phenoxazin-10-yl)-5-(4-(trifluoromethoxy)phenylsulfonamido)piperidine-1-carboxylate]",10,–
"O=S(=O)(N[C@@H]1COC[C@H](n2c3ccc(Cl)cc3c3cc(Cl)ccc32)[C@H]1O)c1ccc(OC(F)(F)F)cc1 [Example 5, N-((3R,4R,5S)-5-(3,6-dichloro-9H-carbazol-9-yl)-4-hydroxytetrahydro-2H-pyran-3-yl)-4-(trifluoromethoxy)benzenesulfonamide]",5,–
"O=S(=O)(N[C@@H]1COC[C@H](n2c3ccccc3c3cc(F)ccc32)[C@H]1O)c1ccc(OC(F)(F)F)cc1 [Example 4, N-((3R,4R,5S)-5-(3-fluoro-9H-carbazol-9-yl)-4-hydroxytetrahydro-2H-pyran-3-yl)-4-(trifluoromethoxy)benzenesulfonamide]",15,–
"O=S(=O)(N[C@@H]1CNCC(N2c3ccccc3Oc3ccccc32)[C@H]1O)c1ccc(OC(F)(F)F)cc1 (mixture of isomers) [Example 17, Rac-N-((3R,4R,5S)-4-hydroxy-5-(10H-phenoxazin-10-yl)piperidin-3-yl)-4-(trifluoromethoxy)benzenesulfonamide]",5,–
